Test results from ChEMBL document CHEMBL4699516, “S-Bridged Thioether and Structure-Diversified Angucyclinone Derivatives from the South China Sea-Derived Micromonospora echinospora SCSIO 04089” (J Nat Prod, 2020).
Values after ≈ are worked out from the molar mass of the structure shown.

How the values were obtained:
[1] = test system: Bacillus subtilis; test: Antibacterial activity against […] 1064 assessed as reduction in bacterial growth after 16 hrs by broth microdilution method; format: functional
[2] = test system: HepG2; test: Cytotoxicity against human HepG2 cells assessed as reduction in cell viability after 72 hrs by SRB assay; format: functional, cell-based; conditions: HepG2, 72 h
[3] = test system: SF-268; test: Cytotoxicity against human SF-268 cells assessed as reduction in cell viability after 72 hrs by SRB assay; format: functional, cell-based; conditions: SF-268, 72 h
[4] = test system: Staphylococcus aureus; test: Antibacterial activity against Staphylococcus aureus ATCC 29213 assessed as reduction in bacterial growth after 16 hrs by broth microdilution method; format: functional
[5] = test system: Bacillus thuringiensis; test: Antibacterial activity against Bacillus thuringiensis SCSIO BT01 assessed as reduction in bacterial growth after 16 hrs by broth microdilution method; format: functional
[6] = test system: MCF7; test: Cytotoxicity against human MCF7 cells assessed as reduction in cell viability after 72 hrs by SRB assay; format: functional, cell-based; conditions: MCF7, 72 h
[7] = test system: Micrococcus luteus; test: Antibacterial activity against Micrococcus luteus SCSIO ML01 assessed as reduction in bacterial growth after 16 hrs by broth microdilution method; format: functional
[8] = test system: Staphylococcus aureus; test: Antibacterial activity against methicillin-resistant Staphylococcus aureus shhs-A1 assessed as reduction in bacterial growth after 16 hrs by broth microdilution method; format: functional

Row | SMILES | MIC [1] | IC50 [2] | IC50 [3] | MIC [4] | MIC [5] | IC50 [6] | MIC [7] | MIC [8]
1 | CCc1cc(O)c2c3c([nH]c(=O)c2c1)C(=O)c1c(O)cccc1C3=O | > 64 µg/mL | 4 µM | 18 µM | 64 µg/mL (≈ 191 µM) | > 64 µg/mL | 52 µM | > 64 µg/mL | 64 µg/mL (≈ 191 µM)
2 | CCc1cc(O)c2c(c1)C(N)=C1C(=O)c3c(O)cccc3C(=O)C12CC(C)=O (racemic) | > 64 µg/mL | > 100 µM | > 100 µM | > 64 µg/mL | > 64 µg/mL | > 100 µM | > 64 µg/mL | > 64 µg/mL
3 | CCc1cc(O)c2c3c(ncc2c1)C(=O)c1c(O)cccc1C3=O | 4 µg/mL (≈ 12.5 µM) | 1.4 µM | 5.4 µM | 2 µg/mL (≈ 6.26 µM) | 4 µg/mL (≈ 12.5 µM) | 6.8 µM | 4 µg/mL (≈ 12.5 µM) | 2 µg/mL (≈ 6.26 µM)
4 | CC[C@]12CC(=O)[C@@]3(O)[C@](O)(CC(O)=C4C(=O)c5c(O)cccc5C(=O)[C@@]43S1)C2 | > 64 µg/mL | > 100 µM | > 100 µM | > 64 µg/mL | > 64 µg/mL | > 100 µM | > 64 µg/mL | > 64 µg/mL
5 | CCc1cc(O)c2c(c1C(C)=O)C(=O)c1cccc(O)c1C2=O | > 64 µg/mL | 8.1 µM | 7.6 µM | > 64 µg/mL | > 64 µg/mL | 10.4 µM | > 64 µg/mL | > 64 µg/mL
6 | CCc1cc(C(=O)O)c2c3c(oc2c1)C(=O)c1c(O)cccc1C3=O | > 64 µg/mL | > 100 µM | > 100 µM | > 64 µg/mL | > 64 µg/mL | > 100 µM | > 64 µg/mL | > 64 µg/mL
7 | CC[C@]1(O)CC(=O)c2c(cc(O)c3c2C(=O)c2cccc(O)c2C3=O)C1 | > 64 µg/mL | 10.3 µM | 9 µM | > 64 µg/mL | > 64 µg/mL | 12.5 µM | > 64 µg/mL | > 64 µg/mL
8 | CCc1cc(O)c2c(c1)C(SC[C@H](NC(C)=O)C(=O)O)=C1C(=O)c3c(O)cccc3C(O)=C12 | > 64 µg/mL | > 100 µM | > 100 µM | > 64 µg/mL | > 64 µg/mL | > 100 µM | > 64 µg/mL | > 64 µg/mL
9 | CCc1cc(O)c(C2=C(O)C(=O)c3c(O)cccc3C2=O)c(C(=O)OC)c1 | > 64 µg/mL | > 100 µM | > 100 µM | > 64 µg/mL | > 64 µg/mL | > 100 µM | > 64 µg/mL | > 64 µg/mL
10 | Cc1cn([C@H]2C[C@H](O)[C@@H](COP(=O)(O)O)O2)c(=O)[nH]c1=O [THYMIDINE MONOPHOSPHATE] | 0.5 µg/mL |  |  | 2 µg/mL | 0.5 µg/mL |  | 0.5 µg/mL | 2 µg/mL
11 | CCc1cc(O)c2c3c(c(O)cc2c1)C(=O)c1c(O)cccc1C3=O | > 64 µg/mL | 25.3 µM | 16.9 µM | 4 µg/mL (≈ 12 µM) | > 64 µg/mL | 14.9 µM | 8 µg/mL (≈ 23.9 µM) | > 64 µg/mL
